Results reported in patent publication US5462935A, “Cephalosporin compounds” (Lucky Limited, priority 1990, dated 1995).
≈ marks a conversion by molar mass, not a printed value.

Tests used:
[1] = test system: Citrobacter freundii ATCC 8090; assay: minimal inhibitory concentration, two-fold agar dilution; type: cell-based; settings: ATCC8090, Muller-Hinton agar, 37° C., 20 hours
Experimental: (§1) These NIC values were taken by employing a two-fold dilution method: that is, two-fold serial dilutions of each of the test compounds were made and dispersed in a Muller-Hinton agar medium; 2 μl of the standard test strain which had the 10^7 CFU (Colony Forming Unit) per ml was inoculated on the medium; and these were incubated at 37° C. for 20 hours.

[2] = test system: Enterobacter cloacae ATCC 27508; assay: as above; type: cell-based; settings: ATCC27508, Muller-Hinton agar, 37° C., 20 hours
Experimental: as §1

[3] = test system: Serratia marcescens ATCC 27117; assay: as above; type: cell-based; settings: ATCC27117, Muller-Hinton agar, 37° C., 20 hours
Experimental: as §1

[4] = test system: Bacillus cereus ATCC 11778; assay: as above; type: cell-based; settings: Bacillus cereus, ATCC11778, 20 h
Experimental: as §1

[5] = test system: Shigella flexneri ATCC 11836; assay: as above; type: cell-based; settings: ATCC11836, Muller-Hinton agar, 37° C., 20 hours
Experimental: as §1

[6] = test system: Bacillus megaterium ATCC 9885; assay: as above; type: cell-based; settings: Priestia megaterium, ATCC9885, 20 h
Experimental: as §1

[7] = test system: Shigella sonnei ATCC 11060; assay: as above; type: cell-based; settings: ATCC11060, Muller-Hinton agar, 37° C., 20 hours
Experimental: as §1

[8] = test system: Pseudomonas aeruginosa ATCC 25619; assay: as above; type: cell-based; settings: ATCC25619, Muller-Hinton agar, 37° C., 20 hours
Experimental: as §1

[9] = test system: Proteus vulgaris ATCC 6059; assay: as above; type: cell-based; settings: ATCC6059, Muller-Hinton agar, 37° C., 20 hours
Experimental: as §1

[10] = test system: Staphylococcus aureus ATCC 6638p; assay: as above; type: cell-based; settings: ATCC6638P, 20 h
Experimental: as §1

[11] = test system: ATCC 12228; assay: as above; type: cell-based; settings: Staphylococcus faecalis, ATCC12228, 20 h
Experimental: as §1

[12] = test system: Enterobacter aerogenes ATCC 29751; assay: as above; type: cell-based; settings: Klebsiella aerogenes, ATCC29751, 20 h
Experimental: as §1

[13] = test system: Streptococcus faecalis ATCC 29212; assay: as above; type: cell-based; settings: Enterococcus faecalis, ATCC29212, Muller-Hinton agar, 37° C., 20 hours
Experimental: as §1

[14] = test system: Proteus mirabilis ATCC 25933; assay: as above; type: cell-based; settings: ATCC25933, Muller-Hinton agar, 37° C., 20 hours
Experimental: as §1

[15] = test system: Micrococcus luteus ATCC 9341; assay: as above; type: cell-based; settings: ATCC9341, Muller-Hinton agar, 37° C., 20 hours
Experimental: as §1

[16] = test system: Escherichia coli ATCC 10536; assay: as above; type: cell-based; settings: ATCC10536, Muller-Hinton agar, 37° C., 20 hours
Experimental: as §1

[17] = test system: Staphylococcus epidermidis ATCC 10537; assay: as above; type: cell-based; settings: ATCC10537, Muller-Hinton agar, 37° C., 20 hours
Experimental: as §1

[18] = test system: Pseudomonas aerugionsa ATCC 10145; assay: as above; type: cell-based; settings: ATCC10145, Muller-Hinton agar, 37° C., 20 hours
Experimental: as §1

[19] = test system: Pseudomonas aerugionsa ATCC 27853; assay: as above; type: cell-based; settings: ATCC27853, Muller-Hinton agar, 37° C., 20 hours
Experimental: as §1

[20] = test system: Escherichia coli ATCC 25922; assay: as above; type: cell-based; settings: ATCC25922, Muller-Hinton agar, 37° C., 20 hours
Experimental: as §1

[21] = test system: Klebsiella pneumoniae ATCC 10031; assay: as above; type: cell-based; settings: ATCC10031, Muller-Hinton agar, 37° C., 20 hours
Experimental: as §1

[22] = test system: Acinetobacter calcoaceticus ATCC 15473; assay: as above; type: cell-based; settings: ATCC15473, Muller-Hinton agar, 37° C., 20 hours
Experimental: as §1

[23] = test system: Providencia rettgeri ATCC 9250; assay: as above; type: cell-based; settings: ATCC9250, Muller-Hinton agar, 37° C., 20 hours
Experimental: as §1

[24] = test system: Salmonella typhimurium ATCC 14028; assay: as above; type: cell-based; settings: Salmonella enterica, Muller-Hinton agar, 37° C., 20 hours
Experimental: as §1

[25] = test system: Morganella morganii ATCC 8076h; assay: as above; type: cell-based; settings: ATCC8076H, 20 h
Experimental: as §1

[26] = acute toxicity test, intravenous; settings: mouse, in vivo, ICR mice, observed for 14 days
Source text: The results are shown in the last row of Table 2.

Structure (SMILES) | MIC [1] | MIC [2] | MIC [3] | MIC [4] | MIC [5] | MIC [6] | MIC [7] | MIC [8] | MIC [9] | MIC [10] | MIC [11] | MIC [12] | MIC [13] | MIC [14] | MIC [15] | MIC [16] | MIC [17] | MIC [18] | MIC [19] | MIC [20] | also measured
CCC[n+]1c(N)cc(N)nc1SCC1=C(C(=O)[O-])N2C(=O)C(NC(=O)/C(=N\O[C@@H](C)C(=O)O)c3csc(N)n3)[C@H]2SC1 (stereo partly drawn) [I-S-4, 7-[(Z)-2-(2-aminothiazol-4-yl)-2-[(S)-1-carboxyeth-1-oxyimino]acetamido]-3-[(4,6-diamino-1-propylpyrimidinium-2-yl)thiomethyl]-3-cephem-4-carboxylate] | 0.031 µg/mL (≈ 0.0486 µM) | ≤ 0.008 µg/mL | 0.13 µg/mL (≈ 0.204 µM) | 32 µg/mL (≈ 50.2 µM) | 0.031 µg/mL (≈ 0.0486 µM) | 0.5 µg/mL (≈ 0.784 µM) | 0.063 µg/mL (≈ 0.0988 µM) | 1 µg/mL (≈ 1.57 µM) | 0.031 µg/mL (≈ 0.0486 µM) | 2 µg/mL (≈ 3.14 µM) | 1 µg/mL (≈ 1.57 µM) | 1 µg/mL (≈ 1.57 µM) | > 128 µg/mL | 0.031 µg/mL (≈ 0.0486 µM) | 0.13 µg/mL (≈ 0.204 µM) | 0.031 µg/mL (≈ 0.0486 µM) | 1 µg/mL (≈ 1.57 µM) | 2 µg/mL (≈ 3.14 µM) | 1 µg/mL (≈ 1.57 µM) | 0.031 µg/mL (≈ 0.0486 µM) | MIC [21]: 0.031 µg/mL (≈ 0.0486 µM); MIC [22]: 4 µg/mL (≈ 6.27 µM); MIC [23]: ≤ 8 ng/mL; MIC [24]: 0.13 µg/mL (≈ 0.204 µM); MIC [25]: ≤ 8 ng/mL; LD50 at 336 h [26]: > 3000 mg/kg
C[C@H](O/N=C(\C(=O)NC1C(=O)N2C(C(=O)[O-])=C(CSc3nc(N)cc(N)[n+]3-c3ccccc3)CS[C@H]12)c1csc(N)n1)C(=O)O (stereo partly drawn) [I-S-5, 7-[(Z)-2-(2-aminothiazol-4-yl)-2-[(S)-1-carboxyeth-1-oxyimino]acetamido]-3-[(4,6-diamino-1-phenylpyrimidinium-2-yl)thiomethyl]-3-cephem-4-carboxylate] | 0.13 µg/mL (≈ 0.194 µM) | 0.031 µg/mL (≈ 0.0461 µM) | 0.5 µg/mL (≈ 0.744 µM) | 32 µg/mL (≈ 47.6 µM) | 0.13 µg/mL (≈ 0.194 µM) | 0.25 µg/mL (≈ 0.372 µM) | 0.25 µg/mL (≈ 0.372 µM) | 2 µg/mL (≈ 2.98 µM) | 0.063 µg/mL (≈ 0.0938 µM) | 4 µg/mL (≈ 5.95 µM) | 2 µg/mL (≈ 2.98 µM) | 2 µg/mL (≈ 2.98 µM) | > 128 µg/mL | 0.13 µg/mL (≈ 0.194 µM) | 0.25 µg/mL (≈ 0.372 µM) | 0.25 µg/mL (≈ 0.372 µM) | 4 µg/mL (≈ 5.95 µM) | 8 µg/mL (≈ 11.9 µM) | 4 µg/mL (≈ 5.95 µM) | 0.25 µg/mL (≈ 0.372 µM) | MIC [21]: 0.13 µg/mL (≈ 0.194 µM); MIC [22]: 16 µg/mL (≈ 23.8 µM); MIC [23]: ≤ 8 ng/mL; MIC [24]: 0.5 µg/mL (≈ 0.744 µM); MIC [25]: ≤ 8 ng/mL; LD50 at 336 h [26]: > 2000 mg/kg
Cc1c(N)nc(SCC2=C(C(=O)[O-])N3C(=O)C(NC(=O)/C(=N\O[C@@H](C)C(=O)O)c4csc(N)n4)C3SC2)[n+](C)c1N (stereo partly drawn) [I-S-6, 7-[(Z)-2-(2-aminothiazol-4-yl)-2-[(S)-1-carboxyeth-1-oxyimino]acetamido]-3-[(4,6-diamino-1,5-dimethylpyrimidinium-2-yl)thiomethyl]-3-cephem-4-carboxylate] | 0.016 µg/mL (≈ 0.0257 µM) | ≤ 0.008 µg/mL | 0.13 µg/mL (≈ 0.208 µM) | 64 µg/mL (≈ 103 µM) | 0.016 µg/mL (≈ 0.0257 µM) | 0.25 µg/mL (≈ 0.401 µM) | 0.031 µg/mL (≈ 0.0497 µM) | 1 µg/mL (≈ 1.6 µM) | 0.031 µg/mL (≈ 0.0497 µM) | 4 µg/mL (≈ 6.41 µM) | 1 µg/mL (≈ 1.6 µM) | 0.5 µg/mL (≈ 0.802 µM) | > 128 µg/mL | 0.031 µg/mL (≈ 0.0497 µM) | 0.25 µg/mL (≈ 0.401 µM) | 0.031 µg/mL (≈ 0.0497 µM) | 2 µg/mL (≈ 3.21 µM) | 2 µg/mL (≈ 3.21 µM) | 1 µg/mL (≈ 1.6 µM) | 0.031 µg/mL (≈ 0.0497 µM) | MIC [21]: 0.031 µg/mL (≈ 0.0497 µM); MIC [22]: 4 µg/mL (≈ 6.41 µM); MIC [23]: ≤ 8 ng/mL; MIC [24]: 0.13 µg/mL (≈ 0.208 µM); MIC [25]: ≤ 8 ng/mL; LD50 at 336 h [26]: > 3000 mg/kg
